The text below walks through data of PMC5485613, “A novel TRPM8 agonist relieves dry eye discomfort” (BMC Ophthalmology, 2017).

One assay has as its target T1, human TRPM8 (Homo sapiens, UniProt Q7Z2W7).
T1 construct: host or cells: CHO cells, stably transfected
The experiment in a line: TRPM8 calcium assay (Fluo-8, FLIPR) in transfected CHO cells. The assay is classed as cell-based. The following applies: x Menthol. How it is done: Compounds were tested on Chinese Hamster Ovary (CHO) cells stably transfected with human TRPM8 cDNAs using a Fluo-8 calcium kit and a Fluorescence Imaging Plate Reader ([…]™) instrument. […] Solutions were prepared by diluting stock solutions in a HEPES-buffered physiological saline (HBPS) solution. Test compound and control formulations were loaded in polypropylene or glass-lined 384-well plates, and placed into the FLIPR instrument (Molecular Devices Corporation, Union City, CA, USA). Each was tested at 8 concentrations with n = 4 replicates per determination. […] For […]™ assay, cells were plated in 384-well black wall, flat clear-bottom microtiter plates (Type: BD Biocoat Poly-D-Lysine Multiwell Cell Culture Plate) at approximately 30,000 cells per well. Cells were incubated at 37 °C overnight to reach a near confluent monolayer appropriate for use in a fluorescence assay. The test procedure was to remove the growth media and to add 40 μL of HBPS containing Fluo-8 for 30 min at 37 °C. 10 μL of test compound, vehicle, or control solutions in HBPS were added to each well and read for 4 min. Concentration-response data were analyzed via the FLIPR Control software that is supplied with the FLIPR System (MDS-AT) and fitted to a Hill equation.

The next assay deals with T2, human TRPA1 (Homo sapiens, UniProt O75762).
T2 construct: expressed in transfected cells; host or cells: KNRK cells (rat kidney), transiently transfected
Briefly: TRPA1 calcium imaging (Fura-2) in transfected KNRK cells. As to conditions: 10 μM. Format: cell-based. The method, then:
To further examine the specificity of C3, tests were conducted on TRPV1 channels and TRPA1 channels expressed in Kirsten murine sarcoma virus transformed rat kidney (KNRK) cells. KNRK cells were cultured as a monolayer and maintained in Dulbeccos’s Modified Eagles’s Medium (Life Technologies), supplemented with 10% fetal bovine serum (Life Technologies), 100 units/mL penicillin and 100 μg/mL streptomycin, in an incubator of 5% CO2 at 37 °C. After suspension, the cells were coated on cover slips for 12 h, then transiently transfected with cDNA (pc3.1 DNA) for TRPV1 or TRPA1 with Lipofectamine 2000 (Invitrogen) for 24 h, and loaded with Fura-2 AM™ (Molecular Probes) for 40 min at 37 °C. After washing and recovery, KNRK cells were imaged at 340 and 380 nm excitation to detect free calcium influx. An increase of 50% of the 340/380 ratio was considered as the response threshold which were measured under masked conditions for plasmids. Compounds were applied to the bath and calcium response was acquired by an inverted Nikon fluorescence microscope with a CoolSnap HQ2 CCD camera (Photometrics, Tucson, AZ). Data were quantified offline with the Nikon-NIS program.

The next assay relates to dry eye mice. Briefly: Mouse dry eye model (extraorbital lacrimal gland removal): tear volume, blinking, corneal abrasion. The assay is classed as in vivo. As to conditions: for Tear secretion (phenol-red thread wetting): mean ± SEM. How it is done:
C57BL/6 J wild-type mice were purchased from Jackson Laboratory (Stock No. 000664). Adult male mice were anesthetized with xylazine ([…]) and ketamine ([…]) mixture and incisions of 5 mm were made in the skin between the eye and the ear, both extraorbital lacrimal glands were gently isolated by forceps and removed. As mouse has three pairs of lacrimal glands, removing the extraorbital ones will induce partially tear secretion deficiency, but still have other tear sources to be triggered. Sham mice received the same procedure without gland removal. Skin was sutured with 6–0 black monofilament nylon (Ethilon from Ethicon, Inc.). All mice received antibiotics (100 μL Enroflox™, intramuscular daily) and topical analgesia (2% lidocaine gel) for 2 days postoperative. Behavioral assays were done between 2 and 4 weeks after the surgery.
Tear volume was measured with phenol-red cotton threads (Zone-Quick; Showa Yakuhin Kako CO., Ltd., Tokyo, Japan) as described. The threads were held with forceps and applied to the lateral canthus for 30 s. Immediately afterwards the wetting of the thread was read in mm under a dissection microscope. Corneal abrasion was assessed under cobalt blue light after application of 0.5 μl of 0.25% fluorescein sodium (Bausch & Lomb Inc. Tampa, FL 33637). Grades of abrasion were classified with a grading system that is based on area of corneal staining. Grouping was blinded to the observers. Results were grouped according to the treatments after analysis.
To determine if C3 affected tear secretion, we tested its effect in mice. Mice were held firmly and 2 μL of C3 or vehicle was wiped gently on eyelid by pipette from nasal side to bitemporal. Tear secretion was increased by C3 in sham-operated animals and in mice in which the extraorbital lacrimal glands were surgically removed (Fig. 4a). […] The positive results in an animal model of DED justified further studies in human subjects.

The mark [1] stands for this setting: sham group or dry eye mouse model, single administration.

T1 sequence (Q7Z2W7 whole entry): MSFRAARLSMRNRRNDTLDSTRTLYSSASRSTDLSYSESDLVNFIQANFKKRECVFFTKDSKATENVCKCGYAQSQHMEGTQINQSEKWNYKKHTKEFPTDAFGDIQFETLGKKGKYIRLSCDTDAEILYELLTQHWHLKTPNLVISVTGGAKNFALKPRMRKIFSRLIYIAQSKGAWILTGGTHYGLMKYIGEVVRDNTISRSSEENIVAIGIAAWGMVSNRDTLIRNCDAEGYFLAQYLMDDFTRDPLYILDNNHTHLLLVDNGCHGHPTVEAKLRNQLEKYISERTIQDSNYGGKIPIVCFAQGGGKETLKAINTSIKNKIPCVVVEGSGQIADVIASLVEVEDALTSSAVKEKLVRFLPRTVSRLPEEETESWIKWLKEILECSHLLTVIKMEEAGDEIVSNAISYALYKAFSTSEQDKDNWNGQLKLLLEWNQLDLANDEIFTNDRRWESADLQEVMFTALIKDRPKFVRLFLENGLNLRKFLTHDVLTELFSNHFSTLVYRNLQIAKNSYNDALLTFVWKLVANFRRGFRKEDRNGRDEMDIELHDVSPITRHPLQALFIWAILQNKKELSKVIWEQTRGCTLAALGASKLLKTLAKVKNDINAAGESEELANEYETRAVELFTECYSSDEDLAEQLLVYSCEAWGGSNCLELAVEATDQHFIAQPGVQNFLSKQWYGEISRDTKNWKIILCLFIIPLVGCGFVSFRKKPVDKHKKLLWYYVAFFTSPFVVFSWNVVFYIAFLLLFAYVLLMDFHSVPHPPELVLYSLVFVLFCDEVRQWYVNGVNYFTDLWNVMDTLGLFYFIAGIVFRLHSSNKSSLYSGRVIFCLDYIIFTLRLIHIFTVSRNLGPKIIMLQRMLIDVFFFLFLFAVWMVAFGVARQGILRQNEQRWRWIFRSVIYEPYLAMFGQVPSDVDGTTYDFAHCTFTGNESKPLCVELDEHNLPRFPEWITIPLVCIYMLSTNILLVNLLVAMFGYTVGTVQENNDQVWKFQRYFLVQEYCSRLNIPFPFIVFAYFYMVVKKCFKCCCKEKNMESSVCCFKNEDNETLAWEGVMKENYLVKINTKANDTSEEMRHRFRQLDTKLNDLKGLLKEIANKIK
T2 sequence (O75762 whole entry): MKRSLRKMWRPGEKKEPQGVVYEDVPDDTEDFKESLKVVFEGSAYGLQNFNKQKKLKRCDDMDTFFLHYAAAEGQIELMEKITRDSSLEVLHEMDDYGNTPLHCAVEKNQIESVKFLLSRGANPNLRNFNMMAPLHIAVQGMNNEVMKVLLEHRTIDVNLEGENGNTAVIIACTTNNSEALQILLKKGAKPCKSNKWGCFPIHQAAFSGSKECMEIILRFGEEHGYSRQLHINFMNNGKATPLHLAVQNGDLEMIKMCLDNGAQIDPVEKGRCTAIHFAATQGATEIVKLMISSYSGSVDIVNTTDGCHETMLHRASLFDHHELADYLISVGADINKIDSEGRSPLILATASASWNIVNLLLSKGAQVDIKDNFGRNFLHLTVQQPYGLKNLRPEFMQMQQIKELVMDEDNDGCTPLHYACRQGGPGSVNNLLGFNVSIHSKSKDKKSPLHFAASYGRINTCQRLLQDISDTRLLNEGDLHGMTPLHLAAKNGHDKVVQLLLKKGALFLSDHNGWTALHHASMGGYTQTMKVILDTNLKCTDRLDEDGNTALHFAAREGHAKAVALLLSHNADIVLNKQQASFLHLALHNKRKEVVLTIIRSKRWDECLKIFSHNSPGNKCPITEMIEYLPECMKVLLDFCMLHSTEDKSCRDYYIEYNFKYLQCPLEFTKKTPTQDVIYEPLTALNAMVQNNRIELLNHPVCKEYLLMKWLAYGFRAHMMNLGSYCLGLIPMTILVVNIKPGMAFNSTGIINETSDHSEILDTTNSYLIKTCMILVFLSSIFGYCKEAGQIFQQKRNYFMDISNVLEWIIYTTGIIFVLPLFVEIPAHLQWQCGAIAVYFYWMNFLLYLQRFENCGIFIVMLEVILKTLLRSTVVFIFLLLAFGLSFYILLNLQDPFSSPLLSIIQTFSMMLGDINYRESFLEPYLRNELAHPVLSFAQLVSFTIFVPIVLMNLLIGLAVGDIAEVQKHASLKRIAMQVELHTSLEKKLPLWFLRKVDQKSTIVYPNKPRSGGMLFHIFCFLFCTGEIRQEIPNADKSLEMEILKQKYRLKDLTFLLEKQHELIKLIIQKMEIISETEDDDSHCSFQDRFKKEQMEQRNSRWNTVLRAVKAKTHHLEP

Consider `CCCCCCCCCP(=O)(C(C)C)C(C)C` [C3, 1-diisopropylphosphorylnonane], for which the “relative potency to l-menthol (menthol = 1)” value at human TRPM8 is 4.0. Further, the “activation of TRPA1 (calcium response)” value on human TRPA1 is “inactive”. The “Tear secretion (phenol-red thread wetting)” value in the assay with dry eye mice (dry eye mice, n = 6, 2 μL wiped on eyelid) stood at 1.3 ± 0.4 mm. In the assay with dry eye mice (setting [1]), the Spontaneous blinking entry is recorded as “not affected” and the corneal abrasion result is “not affected”. Besides, in the assay on dry eye mice (sham group, n = 5, 2 μL wiped on eyelid), the “Tear secretion (phenol-red thread wetting)” value stood at 5.4 ± 0.5 mm.
